Test results published in ChEMBL document CHEMBL1159215, “Isolation of antifungal and larvicidal constituents of Diplolophium buchanani by centrifugal partition chromatography” (1995).
Activity calls are given as the source filed them. No cut-off for these calls is given here.

What was measured:
[1] = test system: Aedes aegypti; test: Larvicidal activity against Aedes aegypti larvae after 24 hrs […]; format: functional
[2] = test system: Cladosporium cucumerinum; test: Antifungal activity against Cladosporium cucumerinum assessed as inhibition of spore growth by TLC bioassay; format: functional
[3] = test system: Aedes aegypti; test: Larvicidal activity against Aedes aegypti larvae at 400 ppm after 24 hrs […]; format: functional, organism-based

C/C=C\c1cc(OC)c(OC)cc1OC [CIS-ASARONE]
LD100 [1]: 16 ppm

Clc1ccc(COC(Cn2ccnc2)c2ccc(Cl)cc2Cl)c(Cl)c1 (configuration not stated) [MICONAZOLE]
Activity [2]: 1 µg

CC(C)(O)[C@H](O)COc1c2ccoc2cc2oc(=O)ccc12 [OXYPEUCEDANIN HYDRATE]
Activity [2]: 10 µg | Activity [1]: inactive | Activity [3]: inactive

CC1(C)O[C@H]1COc1c2ccoc2cc2oc(=O)ccc12 [OXYPEUCEDANIN]
Activity [2]: 1 µg | LD100 [1]: 25 ppm
